Reference: ChEMBL document CHEMBL5154839, “Discovery of a selective and covalent small-molecule inhibitor of BFL-1 protein that induces robust apoptosis in cancer cells” (Eur J Med Chem, 2022)
pIC50, pKi: −log10 of the molar value.

Columns and labels:
[1] = biological target: T1, Bcl-2-related protein A1 (Homo sapiens, UniProt Q16548); assay: Displacement of fluorescein tagged BID BH3 peptide from His-tagged recombinant BFL-1 (1 to 151 residues) (unknown origin) expressed in Escherichia coli BL21 (DE3) assessed as inhibition constant incubated for 24 hrs by fluorescence polarization-based competitive binding assay
T1 sequence (Q16548 whole entry): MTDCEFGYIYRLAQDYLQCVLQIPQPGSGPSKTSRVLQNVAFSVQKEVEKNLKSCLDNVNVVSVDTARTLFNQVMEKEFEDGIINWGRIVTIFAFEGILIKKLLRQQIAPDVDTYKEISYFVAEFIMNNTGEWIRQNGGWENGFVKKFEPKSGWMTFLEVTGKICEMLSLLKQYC

[2] = biological target: Apoptosis regulator Bcl-2 (Homo sapiens, UniProt P10415); assay: Displacement of fluorescent-labeled BID-BH3 peptide from human BCL-2 expressed in Escherichia coli BL21 (DE3) assessed as inhibition constant by fluorescence polarization-based competitive binding assay
Apoptosis regulator Bcl-2, sequence (P10415 whole entry, the tested form may be a part): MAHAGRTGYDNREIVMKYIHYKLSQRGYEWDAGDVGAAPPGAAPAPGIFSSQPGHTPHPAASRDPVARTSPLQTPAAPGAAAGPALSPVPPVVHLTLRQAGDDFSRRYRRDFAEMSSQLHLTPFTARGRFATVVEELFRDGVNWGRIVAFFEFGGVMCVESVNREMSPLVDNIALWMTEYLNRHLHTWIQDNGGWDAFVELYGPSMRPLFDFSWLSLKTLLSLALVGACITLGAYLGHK

[3] = biological target: T1, Bcl-2-related protein A1; assay: Displacement of fluorescent-labeled BID-BH3 peptide from His-tagged human BFL-1 (1 to 151 residues) expressed in Escherichia coli BL21 (DE3) assessed as inhibition constant by fluorescence polarization-based competitive binding assay
[4] = biological target: Bcl-2-like protein 2 (Homo sapiens, UniProt Q92843); assay: Displacement of fluorescent-labeled BID-BH3 peptide from human BCL-W expressed in Escherichia coli BL21 (DE3) assessed as inhibition constant by fluorescence polarization-based competitive binding assay
Bcl-2-like protein 2, sequence (Q92843 whole entry): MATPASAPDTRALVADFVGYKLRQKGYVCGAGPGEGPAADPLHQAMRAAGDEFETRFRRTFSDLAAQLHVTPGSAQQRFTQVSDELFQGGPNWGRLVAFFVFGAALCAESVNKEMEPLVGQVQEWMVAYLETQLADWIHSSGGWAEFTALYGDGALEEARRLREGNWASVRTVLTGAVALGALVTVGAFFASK

[5] = biological target: Bcl-2-like protein 1 (Homo sapiens, UniProt Q07817); assay: Displacement of fluorescent-labeled BID-BH3 peptide from human BCL-xL expressed in Escherichia coli BL21 (DE3) assessed as inhibition constant by fluorescence polarization-based competitive binding assay
Bcl-2-like protein 1, sequence (Q07817 whole entry): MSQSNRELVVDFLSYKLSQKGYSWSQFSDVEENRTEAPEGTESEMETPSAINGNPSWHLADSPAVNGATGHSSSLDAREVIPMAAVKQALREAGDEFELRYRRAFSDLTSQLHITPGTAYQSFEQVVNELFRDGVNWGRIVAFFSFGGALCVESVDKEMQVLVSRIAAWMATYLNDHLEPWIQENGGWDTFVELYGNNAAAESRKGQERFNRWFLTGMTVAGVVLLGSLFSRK

[6] = system: Kasumi 1; assay: Growth inhibition of human Kasumi 1 cells incubated for 4 days by WST assay; format: functional, cell-based; conditions: Kasumi 1, 96 h
[7] = system: U-937; assay: Induction of apoptosis in human U-937 cells assessed as late apoptotic cells at 20 uM measured after 4 hrs by Annexin PI staining based flow cytometry method (reference value: 1.62 %); format: functional
[8] = system: RPMI-8226; assay: Growth inhibition of human RPMI-8226 cells incubated for 4 days by WST assay; format: functional, cell-based; conditions: RPMI-8226, 96 h
[9] = system: MV4-11; assay: Growth inhibition of human MV4-11 cells incubated for 4 days by WST assay; format: functional, cell-based; conditions: MV4-11, 96 h
[10] = system: U-937; assay: Induction of apoptosis in human U-937 cells assessed as necrotic cells at 20 uM measured after 4 hrs by Annexin PI staining based flow cytometry method (reference value: 0.00 %); format: functional
[11] = system: U-937; assay: Induction of apoptosis in human U-937 cells assessed as early apoptotic cells at 60 uM measured after 4 hrs by Annexin PI staining based flow cytometry method (reference value: 1.95 %); format: functional
[12] = system: U-937; assay: Induction of apoptosis in human U-937 cells assessed as early apoptotic cells at 20 uM measured after 4 hrs by Annexin PI staining based flow cytometry method (reference value: 1.95 %); format: functional
[13] = system: U-937; assay: Induction of apoptosis in human U-937 cells assessed as necrotic cells at 40 uM measured after 4 hrs by Annexin PI staining based flow cytometry method (reference value: 0.00 %); format: functional
[14] = system: U-937; assay: Growth inhibition of human U-937 cells incubated for 4 days by WST assay; format: functional, cell-based; conditions: U-937, 96 h
[15] = system: Raji; assay: Growth inhibition of human Raji cells incubated for 4 days by WST assay; format: functional, cell-based; conditions: 96 h
[16] = system: U-937; assay: Induction of apoptosis in human U-937 cells assessed as early apoptotic cells at 40 uM measured after 4 hrs by Annexin PI staining based flow cytometry method (reference value: 1.95 %); format: functional
[17] = system: U-937; assay: Induction of apoptosis in human U-937 cells assessed as necrotic cells at 10 uM measured after 4 hrs by Annexin PI staining based flow cytometry method (reference value: 0.00 %); format: functional
[18] = Displacement of fluorescein tagged BID BH3 peptide from His-tagged recombinant BFL-1 (1 to 151 residues) C55A mutant (unknown origin) expressed in Escherichia coli BL21 (DE3) assessed as inhibition constant incubated for 24 hrs by fluorescence polarization-based competitive binding assay; parameters: species or system Homo sapiens
[19] = system: U-937; assay: Induction of apoptosis in human U-937 cells assessed as late apoptotic cells at 40 uM measured after 4 hrs by Annexin PI staining based flow cytometry method (reference value: 1.62 %); format: functional
[20] = system: MM1.S; assay: Growth inhibition of human MM1.S cells incubated for 4 days by WST assay; format: functional, cell-based; conditions: 96 h
[21] = system: U-937; assay: Induction of apoptosis in human U-937 cells assessed as early apoptotic cells at 10 uM measured after 4 hrs by Annexin PI staining based flow cytometry method (reference value: 1.95 %); format: functional
[22] = system: K562; assay: Growth inhibition of human K562 cells incubated for 4 days by WST assay; format: functional, cell-based; conditions: K562, 96 h
[23] = system: U-937; assay: Induction of apoptosis in human U-937 cells assessed as necrotic cells at 60 uM measured after 4 hrs by Annexin PI staining based flow cytometry method (reference value: 0.00 %); format: functional
[24] = system: U-937; assay: Induction of apoptosis in human U-937 cells assessed as late apoptotic cells at 10 uM measured after 4 hrs by Annexin PI staining based flow cytometry method (reference value: 1.62 %); format: functional
[25] = system: HL-60; assay: Growth inhibition of human HL-60 cells incubated for 4 days by WST assay; format: functional, cell-based; conditions: HL-60, 96 h
[26] = system: U-937; assay: Induction of apoptosis in human U-937 cells assessed as late apoptotic cells at 60 uM measured after 4 hrs by Annexin PI staining based flow cytometry method (reference value: 1.62 %); format: functional
[27] = biological target: T1, Bcl-2-related protein A1
Description: Inhibition of His-tagged human BFL-1(1 to 151 residues) expressed in Escherichia coli BL21 (DE3) by fluorescence polarization-based binding assay

[28] = biological target: Induced myeloid leukemia cell differentiation protein Mcl-1 (Homo sapiens, UniProt Q07820); assay: Displacement of fluorescent-labeled BID-BH3 peptide from His-tagged human MCL-1 expressed in Escherichia coli BL21 (DE3) assessed as inhibition constant by fluorescence polarization-based competitive binding assay
Induced myeloid leukemia cell differentiation protein Mcl-1, sequence (Q07820 whole entry): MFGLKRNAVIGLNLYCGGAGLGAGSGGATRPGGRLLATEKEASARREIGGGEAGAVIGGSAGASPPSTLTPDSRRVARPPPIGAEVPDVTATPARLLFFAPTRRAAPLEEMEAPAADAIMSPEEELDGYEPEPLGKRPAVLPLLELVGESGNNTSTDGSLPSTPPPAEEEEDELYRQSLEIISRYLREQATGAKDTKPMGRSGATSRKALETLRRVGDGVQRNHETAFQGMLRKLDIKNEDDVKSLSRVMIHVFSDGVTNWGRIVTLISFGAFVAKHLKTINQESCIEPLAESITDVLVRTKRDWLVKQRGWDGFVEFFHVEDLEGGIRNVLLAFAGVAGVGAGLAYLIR

C=CC(=O)N1CCN(c2c3ccc(-c4cccc(F)c4)cc3nn2Cc2ccc(O)cc2)CC1
pKi [1]: 4.99

C=CC(=O)N1CCN(c2c3ccc(-c4cccc(F)c4)cc3nn2Cc2ccc(OC)cc2)CC1
pKi [1]: < 4.00

CSc1ccc(C(Nc2ccccn2)c2c(C)[nH]c3ccccc23)cc1 (stereo not given)
pKi [2]: 4.89 | pKi [3]: 5.54

C=CC(=O)N1CCN(c2c3ccc(-c4cccc(F)c4)cc3nn2Cc2cccc(C#N)c2)CC1
pKi [1]: 5.48

COc1cccc(Cn2nc3cc(-c4cccc(F)c4)ccc3c2N2CCNCC2)c1
pKi [1]: 5.52

CN1CCN(C2=C(Cl)C(=O)N(c3ccc(Cl)c(Cl)c3)C2=O)CC1
pKi [2]: 4.90 | pKi [4]: 4.90 | pKi [5]: 4.30 | pKi [3]: 6.40

C=CC(=O)N1CCN(c2c3ccc(-c4cccc(F)c4)cc3nn2CCC(C)(C)C)CC1
pKi [1]: < 4.00

CCC(=O)N1CCN(c2c3ccc(-c4cccc(F)c4)cc3nn2Cc2ccccc2)CC1
pIC50 [6]: 5.15 | Activity [7]: 1.8% | pIC50 [8]: 4.93 | pIC50 [9]: 5.05 | Activity [10]: 0.05% | Activity [11]: 3.65% | Activity [12]: 2.79% | Activity [13]: 0.03% | pIC50 [14]: 5.03 | pIC50 [15]: 4.32 | Activity [16]: 3.14% | Activity [17]: 0.16% | pKi [1]: 4.62 | pKi [18]: < 3.70 | Activity [19]: 1.57% | pIC50 [20]: 4.77 | Activity [21]: 1.96% | pIC50 [22]: 4.98 | Activity [23]: 0.03% | Activity [24]: 2.02% | pIC50 [25]: 4.54 | Activity [26]: 2.06%

C=CC(=O)N1CCN(c2c3ccc(-c4cccc(F)c4)cc3nn2CCC)CC1
pKi [1]: 5.95

CC(C)(C)c1ccc(CN2CCN(S(=O)(=O)Nc3ccc(SCCc4ccccc4)cc3C(=O)O)CC2)cc1
pIC50 [6]: 4.69 | pIC50 [8]: 4.67 | pIC50 [9]: 4.68 | pIC50 [14]: 4.70 | pIC50 [15]: 4.29 | pKi [18]: 5.64 | pIC50 [20]: 4.49 | pIC50 [22]: 4.72 | pIC50 [25]: 4.48

C=CC(=O)N1CCN(c2c3ccc(-c4cccc(F)c4)cc3nn2Cc2cccc(O)c2)CC1
pKi [1]: 4.73

C=CC(=O)N1CCN(c2c3ccc(-c4cccc(F)c4)cc3nn2Cc2ccc(C#N)cc2)CC1
pKi [1]: 5.49

CC(=O)NC(Cc1c[nH]c2ccccc12)C(=O)NCCSSCCN(C)C (stereo not given)
pIC50 [27]: 5.89

C=CC(=O)N1CCN(c2c3ccc(-c4cccc(F)c4)cc3nn2Cc2cccc(C(=O)O)c2)CC1
pKi [1]: < 4.00

C=CC(=O)N1CCN(c2c3ccc(-c4cccc(F)c4)cc3nn2CC)CC1
pKi [1]: 5.55

C=CC(=O)N1CCN(c2c3ccc(-c4cccc(F)c4)cc3nn2CCCOC)CC1
pKi [1]: < 4.00

C=CC(=O)N1CCN(c2c3ccc(-c4cccc(F)c4)cc3nn2CCCO)CC1
pKi [1]: 5.62

C=CC(=O)N1CCN(c2c3ccc(-c4cccc(F)c4)cc3nn2CCCN(C)C)CC1
pKi [1]: 4.74

C=CC(=O)N1CCN(c2c3ccc(-c4cccc(F)c4)cc3nn2Cc2cccc(Cl)c2)CC1
pKi [1]: < 4.00

C=CC(=O)N1CCN(c2c3ccc(-c4cccc(F)c4)cc3nn2Cc2ccc(Cl)cc2)CC1
pKi [1]: < 4.00

C=CC(=O)N1CCN(c2c3ccc(-c4cccc(F)c4)cc3nn2Cc2ccc(C(=O)O)cc2)CC1
pKi [1]: < 4.00

CC1(C)CCC(CN2CCN(c3ccc(C(=O)NS(=O)(=O)c4ccc(NCC5CCOCC5)c([N+](=O)[O-])c4)c(Oc4cnc5[nH]ccc5c4)c3)CC2)=C(c2ccc(Cl)cc2)C1 [VENETOCLAX]
pKi [28]: < 6.35
